Results as given in PubChem BioAssay AID2060340 (Molecular Pharmacology Branch, DTP, NCI, 2025).

Tested on: 349418-098-R-PDC spheroids, viability, % test/control
Assay: Anticancer human tumor 349418-098-R-PDC patient-derived lung adenocarcinoma cell line growth inhibition [IpAb]
Conditions: spheroids with HUVEC and MSC; for IC50: curve of first compound; for viability, T/C: stronger effect = lower value
In short: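 Combinations with ipatasertib or abemaciclib were tested on tumour spheroids holding HUVEC (25%) and MSC (15%) alongside 60% malignant cells. Top concentration was at or near clinical Cmax (10 microM if undefined), descending in half-log steps.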

[1] = second compound 0.1 µM, first compound 0.0316 µM
[2] = second compound 0.1 µM, first compound 0.1 µM
[3] = second compound 0.1 µM, first compound 0.316 µM
[4] = second compound 0.1 µM, first compound 1 µM
[5] = second compound 0.1 µM, first compound 3.16 µM
[6] = second compound 0.1 µM, first compound 10 µM
[7] = second compound 0.316 µM, first compound 0.0316 µM
[8] = second compound 0.316 µM, first compound 0.1 µM
[9] = second compound 0.316 µM, first compound 0.316 µM
[10] = second compound 0.316 µM, first compound 1 µM
[11] = second compound 0.316 µM, first compound 3.16 µM
[12] = second compound 0.316 µM, first compound 10 µM
[13] = second compound 1 µM, first compound 0.0316 µM
[14] = second compound 1 µM, first compound 0.1 µM
[15] = second compound 1 µM, first compound 0.316 µM
[16] = second compound 1 µM, first compound 1 µM
[17] = second compound 1 µM, first compound 3.16 µM
[18] = second compound 1 µM, first compound 10 µM
[19] = second compound 3.16 µM, first compound 0.0316 µM
[20] = second compound 3.16 µM, first compound 0.1 µM
[21] = second compound 3.16 µM, first compound 0.316 µM
[22] = second compound 3.16 µM, first compound 1 µM
[23] = second compound 3.16 µM, first compound 3.16 µM
[24] = second compound 3.16 µM, first compound 10 µM
[25] = second compound 10 µM, first compound 0.0316 µM
[26] = second compound 10 µM, first compound 0.1 µM
[27] = second compound 10 µM, first compound 0.316 µM
[28] = second compound 10 µM, first compound 1 µM
[29] = second compound 10 µM, first compound 3.16 µM
[30] = second compound 10 µM, first compound 10 µM
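Also: spheroids exposed to compounds for 7 days.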

## CC(=O)c1c(C)c2cnc(Nc3ccc(N4CCNCC4)cn3)nc2n(C2CCCC2)c1=O + CCN1CCN(Cc2ccc(Nc3ncc(F)c(-c4cc(F)c5nc(C)n(C(C)C)c5c4)n3)nc2)CC1
Second compound 0.01 µM
  IC50: 6.56 nM
Second compound 0.0316 µM
  IC50: < 0.949 nM
Second compound 0.1 µM
  IC50: < 0.949 nM
Second compound 0.316 µM
  IC50: < 0.949 nM
Second compound 1 µM
  IC50: < 0.949 nM
Second compound 0.01 µM, first compound 0.000949 µM
  viability, T/C: 58.4%
Second compound 0.01 µM, first compound 0.003 µM
  viability, T/C: 64.5%
Second compound 0.01 µM, first compound 0.00949 µM
  viability, T/C: 40.4%
Second compound 0.01 µM, first compound 0.03 µM
  viability, T/C: 35.1%
Second compound 0.01 µM, first compound 0.0949 µM
  viability, T/C: 19.1%
Second compound 0.01 µM, first compound 0.3 µM
  viability, T/C: 15.8%
Second compound 0.0316 µM, first compound 0.000949 µM
  viability, T/C: 40.7%
Second compound 0.0316 µM, first compound 0.003 µM
  viability, T/C: 38.7%
Second compound 0.0316 µM, first compound 0.00949 µM
  viability, T/C: 28.5%
Second compound 0.0316 µM, first compound 0.03 µM
  viability, T/C: 23.6%
Second compound 0.0316 µM, first compound 0.0949 µM
  viability, T/C: 15.1%
Second compound 0.0316 µM, first compound 0.3 µM
  viability, T/C: 15.6%
Second compound 0.1 µM, first compound 0.000949 µM
  viability, T/C: 24.8%
Second compound 0.1 µM, first compound 0.003 µM
  viability, T/C: 24.8%
Second compound 0.1 µM, first compound 0.00949 µM
  viability, T/C: 20.7%
Second compound 0.1 µM, first compound 0.03 µM
  viability, T/C: 19.5%
Second compound 0.1 µM, first compound 0.0949 µM
  viability, T/C: 16.1%
Second compound 0.1 µM, first compound 0.3 µM
  viability, T/C: 14.6%
Second compound 0.316 µM, first compound 0.000949 µM
  viability, T/C: 16.8%
Second compound 0.316 µM, first compound 0.003 µM
  viability, T/C: 19.6%
Second compound 0.316 µM, first compound 0.00949 µM
  viability, T/C: 19%
Second compound 0.316 µM, first compound 0.03 µM
  viability, T/C: 16%
Second compound 0.316 µM, first compound 0.0949 µM
  viability, T/C: 13.8%
Second compound 0.316 µM, first compound 0.3 µM
  viability, T/C: 14.4%
Second compound 1 µM, first compound 0.000949 µM
  viability, T/C: 13.4%
Second compound 1 µM, first compound 0.003 µM
  viability, T/C: 17.6%
Second compound 1 µM, first compound 0.00949 µM
  viability, T/C: 15.1%
Second compound 1 µM, first compound 0.03 µM
  viability, T/C: 15%
Second compound 1 µM, first compound 0.0949 µM
  viability, T/C: 14.9%
Second compound 1 µM, first compound 0.3 µM
  viability, T/C: 13.9%

## C=CC(=O)N1CCN(c2nc(=O)n(-c3c(C)ccnc3C(C)C)c3nc(-c4c(O)cccc4F)c(F)cc23)C(C)C1 (stereo not given) + CC(C)NCC(C(=O)N1CCN(c2ncnc3c2C(C)CC3O)CC1)c1ccc(Cl)cc1
Second compound 0.1 µM
  IC50: 4010 nM
Second compound 0.316 µM
  IC50: 1000 nM
Second compound 1 µM
  IC50: < 31.6 nM
Second compound 3.16 µM
  IC50: < 31.6 nM
Second compound 10 µM
  IC50: < 31.6 nM
[1]
  viability, T/C: 95.8%
[2]
  viability, T/C: 89.6%
[3]
  viability, T/C: 76.7%
[4]
  viability, T/C: 70.2%
[5]
  viability, T/C: 64.7%
[6]
  viability, T/C: 21.7%
[7]
  viability, T/C: 51.9%
[8]
  viability, T/C: 55.1%
[9]
  viability, T/C: 51.4%
[10]
  viability, T/C: 50.2%
[11]
  viability, T/C: 23.9%
[12]
  viability, T/C: 12.5%
[13]
  viability, T/C: 28.4%
[14]
  viability, T/C: 28.3%
[15]
  viability, T/C: 19.6%
[16]
  viability, T/C: 17.2%
[17]
  viability, T/C: 11.9%
[18]
  viability, T/C: 7.34%
[19]
  viability, T/C: 12.3%
[20]
  viability, T/C: 13.3%
[21]
  viability, T/C: 11.8%
[22]
  viability, T/C: 10%
[23]
  viability, T/C: 6.96%
[24]
  viability, T/C: 5.34%
[25]
  viability, T/C: 6.48%
[26]
  viability, T/C: 8.12%
[27]
  viability, T/C: 6.94%
[28]
  viability, T/C: 5.09%
[29]
  viability, T/C: 5.95%
[30]
  viability, T/C: 4.63%

## CC1(C)CCC(CN2CCN(c3ccc(C(=O)NS(=O)(=O)c4ccc(NCC5CCOCC5)c([N+](=O)[O-])c4)c(Oc4cnc5[nH]ccc5c4)c3)CC2)=C(c2ccc(Cl)cc2)C1 + CC(C)NCC(C(=O)N1CCN(c2ncnc3c2C(C)CC3O)CC1)c1ccc(Cl)cc1
Second compound 0.1 µM
  IC50: 3820 nM
Second compound 0.316 µM
  IC50: 326 nM
Second compound 1 µM
  IC50: < 31.6 nM
Second compound 3.16 µM
  IC50: < 31.6 nM
Second compound 10 µM
  IC50: < 31.6 nM
[1]
  viability, T/C: 99.2%
[2]
  viability, T/C: 96.5%
[3]
  viability, T/C: 97.8%
[4]
  viability, T/C: 78%
[5]
  viability, T/C: 60.6%
[6]
  viability, T/C: 7.06%
[7]
  viability, T/C: 64.7%
[8]
  viability, T/C: 49.4%
[9]
  viability, T/C: 50.6%
[10]
  viability, T/C: 40.1%
[11]
  viability, T/C: 31.4%
[12]
  viability, T/C: 5.53%
[13]
  viability, T/C: 30%
[14]
  viability, T/C: 29.5%
[15]
  viability, T/C: 27.3%
[16]
  viability, T/C: 20.4%
[17]
  viability, T/C: 16%
[18]
  viability, T/C: 4.15%
[19]
  viability, T/C: 13.3%
[20]
  viability, T/C: 13%
[21]
  viability, T/C: 11.5%
[22]
  viability, T/C: 12.3%
[23]
  viability, T/C: 8.4%
[24]
  viability, T/C: 3.13%
[25]
  viability, T/C: 8.33%
[26]
  viability, T/C: 8.41%
[27]
  viability, T/C: 8.13%
[28]
  viability, T/C: 7.39%
[29]
  viability, T/C: 5.52%
[30]
  viability, T/C: 2.19%
